According to US5079260A, “Method for treating inflammation and compounds and compositions suitable for use therein” (Nova Pharmaceutical Corporation, priority 1990, dated 1992):
Where a name gives a salt, the structure may show the parent alone.

Assays:
[1] = tested on: Ear Edema Caused by Arachidonic Acid; assay: Inhibition of Ear Edema Caused by Arachidonic Acid (II), Table 8; format: in vivo, CF-1 mice; settings: i.p., sixty minutes
Method: Inhibition of Ear Edema Caused by Arachidonic Acid (II)
CF-1 mice, 25-30 g body weight, six animals per group, were used. The requisite amount of the test compound was dissolved is dimethyl sulfoxide or 0.5% methylcellulose and 100 μL of the solution was injected intraperitoneally 30 minutes prior to the administration of 100 mg/kg of arachidponic acid. A solution of this irritant, b 100 mg/mL in ethanol, was applied to the surface of the ear, 5 μL to the upper surface and 5 μL to the lower surface. After sixty minutes, the thickness of the ear was measured to 0.01 mm by a micrometer with the loose drag positioned at the lateral-most edge of the mid-point of the pinna. Data were calculated as the percent inhibityion by the test compound of increased ear thickness compared to control animals recieveing only the irritant.

[2] = tested on: Ear Edema Caused by Oxazolone; assay: Inhibition of Ear Edema Caused by Oxazolone (II), Table 10; format: in vivo, CF-1 mice; settings: i.p., 24 h
Method: Inhibition of Ear Edema Caused by Oxazolone (II)
CF-1 mice, 25-30 g body weight, five to six animals per group were used. The mice were sensitized to the irritant two weeks prior to the test by dribbling 100 μL of a 3% solution of oxazolone in acetone onto the abdominal skin of the animal. Test compounds were administered intraperitoneally as follows. […] The irritant, 3% oxazolone in acetone, was added to the surface of the ear, 5 μL added to the upper surface and 5 μL added to the lower surface. After twenty four hours, the thickness of the ear was measured to 0.01 mm by a micrometer with loose drag, positioned at the lateral-most edge of the mid-point of the pinna. Data were calculated as the inhibition of increased ear thickness compared to control animals' receiving only the irritant.

[3] = tested on: Reverse Passive Artus Reaction; assay: Reverse Passive Artus Reaction (II), Table 11; format: in vivo, Male CD rats; settings: inhibition of blueing, i.p.
Method: Reverse Passive Artus Reaction (II) Male CD rats weighing between 200 and 250 g were used. […] The animals were anesthetized inhalationally with isoflurane and then injected through the penile vein with 1 mL of a solution of 2.5 mg of Evan's blue dye and 5.0 mg of human serum albumin in 1 mL of saline. This treatment was followed immediately by intracutaneous injections of 0.03 mL of anti-human albumin diluted to contain 3.65 mg of antibody at 3 sites along the midline back. Anesthesia was terminated and after three hours, the animals were sacrificed. The skin was removed and the blue stained areas cut out. The skin patches were soaked overnight in stoppered tubes containing 1 mL of 1 N potassium hydroxide at 37° C. Then 9 mL of a mixture of five parts of a 0.6 N phosphoric acid and thirteen parts of acetone were added to the tubes. The tube contents were agitated and centrifuged, and the absorbance measured at 620 nm. The data were calculated as inhibition of blueing by test compound compared to control animals receiving only antigen and antibody.

[4] = tested on: Ear Edema Caused By Tetradecanoylphorbol Acetate; assay: Inhibition of Ear Edema Caused by Tetradecanoylphorbol Acetate (II), Table 7; format: in vivo, CF-1 Mice; settings: 3 h; for % Inhibition Intraperitoneal: i.p.
Method: Inhibition of Ear Edema Caused by Tetradecanoylphorbol Acetate (II)
CF-1 Mice, 25-30 g body weight, six animals per group were used. Test compounds were administered intraperitoneally or topically as follows. For intraperitoneal administration, the test compound was dissolved in dimethyl sulfoxide or 0.5% methylcellulose and 100 microliters was injected 30 minutes prior to irritant (100 mg/kg, i.p.). […] A solution of the irritant, tetradecanoylphorbol acetate, 200 μg/mL, was added to the surface of the ear, 5 μL to the upper surface and 5 μL to the lower surface. After three hours, the thickness of the ear was measured to 0.01 mm by a micrometer with loose drag, positioned at the lateral-most edge of the mid-point of the pinna. Data were calculated as the inhibition of increased ear thickness compared to control animals receiving only the irritant.

[5] = tested on: Ear Edema Caused by Xylene; assay: Inhibition of Ear Edema Caused by Xylene (II), Table 9; format: in vivo, CF-1 mice; settings: i.p., 2 h
Method: Inhibition of Ear Edema Caused by Xylene (II)
CF-1 mice, 25-30 g body weight, six animals per group, were used. The requisite amount of the test compound was dissolved is dimethyl sulfoxide or 0.5% methylcellulose and 100 μL of the solution was injected intraperitoneally 30 minutes prior to the administration the irritant. The irritant xylene was applied to the surface of the ear, 20 μL to the upper surface and 20 μL to the lower surface, After two hours, the thickness of the ear was measured to 0.01 mm by a micrometer with the loose drag positioned at the lateral-most edge of the mid-point of the pinna. Data were calculated as the percent inhibition by the test compound of increased ear thickness compared to control animals receiving only the irritant.

## COc1ccc2c(c1)c(CC(=O)O)c(C)n2C(=O)c1ccc(Cl)cc1 [Indomethacin, reference compound]
[1]; 100 mg/kg
  % Inhibition Intraperitoneal: 1%
[2]; 1 mg/kg
  % Inhibition Intraperitoneal: 4%
[2]; 3 mg/kg
  % Inhibition Intraperitoneal: 35%
[3]; 1 mg/kg
  % Inhibition Intraperitoneal: 5%
[3]; 3 mg/kg
  % Inhibition Intraperitoneal: 26%
[3]; 10 mg/kg
  % Inhibition Intraperitoneal: 27%

## Cc1ccc2c(c1)C(COC(=O)N[C@@H](CC(C)C)C(=O)O)c1ccccc1-2 (stereo partly drawn) [NPC 15477, N-{[9H-(2-Methylfluoren-9-yl)methoxy]carbonyl}-L-leucine]
[4]; 10 mg/kg
  % Inhibition Intraperitoneal: 35%
[4]; 30 mg/kg
  % Inhibition Intraperitoneal: 37%
[4]; 100 mg/kg
  % Inhibition Intraperitoneal: 72%
[1]; 10 mg/kg
  % Inhibition Intraperitoneal: 10%
[1]; 30 mg/kg
  % Inhibition Intraperitoneal: 58%
[1]; 100 mg/kg
  % Inhibition Intraperitoneal: 82%
[5]; 10 mg/kg
  % Inhibition: 41%
[5]; 30 mg/kg
  % Inhibition: 53%
[5]; 100 mg/kg
  % Inhibition: 69%
[2]; 10 mg/kg
  % Inhibition Intraperitoneal: 3%
[2]; 30 mg/kg
  % Inhibition Intraperitoneal: 14%
[2]; 100 mg/kg
  % Inhibition Intraperitoneal: 43%
[3]; 100 mg/kg
  % Inhibition Intraperitoneal: 53%

## CC(C)C[C@H](NC(=O)OCCC1c2ccccc2-c2ccccc21)C(=O)O [NPC 15521, N-[(9H-Fluoren-9-ylethoxy)carbonyl]-L-leucine]
[4]; 10 mg/kg
  % Inhibition Intraperitoneal: 33%
[4]; 30 mg/kg
  % Inhibition Intraperitoneal: 37%
[4]; 100 mg/kg
  % Inhibition Intraperitoneal: 77%
[1]; 10 mg/kg
  % Inhibition Intraperitoneal: 34%
[1]; 30 mg/kg
  % Inhibition Intraperitoneal: 41%
[1]; 100 mg/kg
  % Inhibition Intraperitoneal: 69%
[5]; 10 mg/kg
  % Inhibition: 20%
[5]; 30 mg/kg
  % Inhibition: 15%
[5]; 100 mg/kg
  % Inhibition: 57%
[2]; 10 mg/kg
  % Inhibition Intraperitoneal: 39%
[2]; 30 mg/kg
  % Inhibition Intraperitoneal: 45%
[2]; 100 mg/kg
  % Inhibition Intraperitoneal: 74%
[3]; 100 mg/kg
  % Inhibition Intraperitoneal: 63%

## CC(C)C[C@H](NC(=O)OCC1c2ccccc2-c2ccccc21)C(=O)OC(C)(C)C [NPC 15527, N-[(9H-Fluoren-9-ylmethoxy)carbonyl]-L-leucine t-butyl ester]
[4]; 10 mg/kg
  % Inhibition Intraperitoneal: 54%
[4]; 30 mg/kg
  % Inhibition Intraperitoneal: 54%
[4]; 100 mg/kg
  % Inhibition Intraperitoneal: 74%
[1]; 10 mg/kg
  % Inhibition Intraperitoneal: 21%
[1]; 30 mg/kg
  % Inhibition Intraperitoneal: 47%
[1]; 110 mg/kg (so in the source)
  % Inhibition Intraperitoneal: 68%
[5]; 10 mg/kg
  % Inhibition: 42%
[5]; 30 mg/kg
  % Inhibition: 34%
[5]; 100 mg/kg
  % Inhibition: 50%
[2]; 10 mg/kg
  % Inhibition Intraperitoneal: 31%
[2]; 30 mg/kg
  % Inhibition Intraperitoneal: 33%
[2]; 110 mg/kg (so in the source)
  % Inhibition Intraperitoneal: 54%
[3]; 100 mg/kg
  % Inhibition Intraperitoneal: 4%

## CNC(=O)[C@H](CC(C)C)NC(=O)OCC1c2ccccc2-c2ccccc21 [NPC 15529, N-[(9H-Fluoren-9-ylmethoxy)carbonyl]-L-leucine methylamide]
[4]; 10 mg/kg
  % Inhibition Intraperitoneal: 67%
[4]; 30 mg/kg
  % Inhibition Intraperitoneal: 67%
[4]; 100 mg/kg
  % Inhibition Intraperitoneal: 78%
[1]; 10 mg/kg
  % Inhibition Intraperitoneal: 16%
[1]; 30 mg/kg
  % Inhibition Intraperitoneal: 32%
[1]; 100 mg/kg
  % Inhibition Intraperitoneal: 29%
[5]; 10 mg/kg
  % Inhibition: 50%
[5]; 30 mg/kg
  % Inhibition: 47%
[5]; 100 mg/kg
  % Inhibition: 50%
[2]; 10 mg/kg
  % Inhibition Intraperitoneal: 32%
[2]; 30 mg/kg
  % Inhibition Intraperitoneal: 41%
[2]; 100 mg/kg
  % Inhibition Intraperitoneal: 76%
[3]; 100 mg/kg
  % Inhibition Intraperitoneal: 0%

## CC(C)(C)[C@H](NC(=O)OCC1c2ccccc2-c2ccccc21)C(=O)O [NPC 15573, N-[(9H-Fluoren-9-ylmethoxy)carbonyl]-L-tert-leucine]
[4]; 10 mg/kg
  % Inhibition Intraperitoneal: 39%
[4]; 30 mg/kg
  % Inhibition Intraperitoneal: 52%
[4]; 100 mg/kg
  % Inhibition Intraperitoneal: 75%
[4]; dose 10 (mg/kg)
  % Inhibition, topical: 20%
[4]; dose 30 (mg/kg)
  % Inhibition, topical: 31%
[4]; dose 100 (mg/kg)
  % Inhibition, topical: 38%
[1]; 10 mg/kg
  % Inhibition Intraperitoneal: 27%
[1]; 30 mg/kg
  % Inhibition Intraperitoneal: 32%
[1]; 100 mg/kg
  % Inhibition Intraperitoneal: 42%
[5]; 10 mg/kg
  % Inhibition: 23%
[5]; 30 mg/kg
  % Inhibition: 17%
[2]; 30 mg/kg
  % Inhibition Intraperitoneal: 28%
[2]; 100 mg/kg
  % Inhibition Intraperitoneal: 48%
[3]; 100 mg/kg
  % Inhibition Intraperitoneal: 50%

## Cc1cccc2c1C(COC(=O)N[C@@H](CC(C)C)C(=O)O)c1ccccc1-2 (stereo partly drawn) [NPC 15638, N-{[9H-(1-Methylfluoren-9-yl)methoxy]carbonyl}-L-leucine]
[4]; 10 mg/kg
  % Inhibition Intraperitoneal: 23%
[4]; 30 mg/kg
  % Inhibition Intraperitoneal: 12%
[4]; 100 mg/kg
  % Inhibition Intraperitoneal: 62%
[1]; 100 mg/kg
  % Inhibition Intraperitoneal: 65%
[5]; 10 mg/kg
  % Inhibition: 37%
[5]; 30 mg/kg
  % Inhibition: 66%
[5]; 100 mg/kg
  % Inhibition: 82%
[2]; 30 mg/kg
  % Inhibition Intraperitoneal: 67%
[2]; 100 mg/kg
  % Inhibition Intraperitoneal: 74%
[3]; 100 mg/kg
  % Inhibition Intraperitoneal: 68%

## Cc1cccc2c1-c1c(C)cccc1C2COC(=O)N[C@@H](CC(C)C)C(=O)O [NPC 15670]
[4]; 10 mg/kg
  % Inhibition Intraperitoneal: 27%
[4]; 30 mg/kg
  % Inhibition Intraperitoneal: 117%
[4]; 100 mg/kg
  % Inhibition Intraperitoneal: 150%
[5]; 10 mg/kg
  % Inhibition: 78%
[5]; 30 mg/kg
  % Inhibition: 46%
[5]; 100 mg/kg
  % Inhibition: 50%
[2]; 10 mg/kg
  % Inhibition Intraperitoneal: -36%
[2]; 30 mg/kg
  % Inhibition Intraperitoneal: 43%
[3]; 100 mg/kg
  % Inhibition Intraperitoneal: 82%

## CC(C)C[C@H](NC(=O)CCC1c2ccccc2-c2ccccc21)C(=O)O [NPC 15672, N-{9H-[3-Fluorenyl-9)propionyl]}-L-leucine, sodium salt]
[4]; 10 mg/kg
  % Inhibition Intraperitoneal: 54%
[4]; 30 mg/kg
  % Inhibition Intraperitoneal: 21%
[4]; 100 mg/kg, sodium salt
  % Inhibition Intraperitoneal: 66%
[2]; 10 mg/kg, sodium salt
  % Inhibition Intraperitoneal: 11%
[2]; 30 mg/kg, sodium salt
  % Inhibition Intraperitoneal: 19%
[2]; 100 mg/kg, sodium salt
  % Inhibition Intraperitoneal: 35%
[3]; 100 mg/kg, sodium salt
  % Inhibition Intraperitoneal: 34%
